Molecular target: T1, Recombinant human mPGES-1 (Homo sapiens, UniProt O14684)
T1 construct: made in house; host or cells: CHO cells (crude microsomal fractions)
T1 sequence (O14684 1-152): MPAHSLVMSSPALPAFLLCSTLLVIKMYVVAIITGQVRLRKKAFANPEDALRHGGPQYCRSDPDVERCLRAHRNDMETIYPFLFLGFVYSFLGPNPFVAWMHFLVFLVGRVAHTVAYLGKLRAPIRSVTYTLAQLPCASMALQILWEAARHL
Test: In-vitro screening of mPGES-1 inhibitors (inhibition of PGE2 formation from PGH2, HTRF detection)
Format: biochemical
Conditions: mPGES-1 enzyme; for inhibition at 1 µM: 1 μM test compound, read-out: Percentage inhibition at 1 μM; for inhibition at 1 µM / inhibition at 10 µM: crude microsomal fractions; for inhibition at 10 µM: 10 μM test compound, read-out: Percentage inhibition at 10 μM; for IC50: class symbols
Procedure, shortened: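 Crude CHO-expressed microsomes (40–60 μg/mL protein) preincubated 10 min with compound in 0.1 M potassium phosphate/2 mM EDTA containing 2.5 mM GSH, 0.5% DMSO final. PGH2 (15 μM) reacted 1 min, stopped with stannous chloride. PGE2 quantified by HTRF, IC50 from nonlinear regression of percent inhibition.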

Row | Compound | inhibition at 1 µM | inhibition at 10 µM | IC50
1 | Cc1ccc(CNC(=O)C(C)(C)C)c(C)c1-c1nn(-c2ccc(C(F)(F)F)cc2)c(=O)[nH]1 [Example-108, N-(3-(1-(4-(Trifluoromethyl)phenyl)-4,5-dihydro-5-oxo-1H-1,2,4-triazol-3-yl)-2,4-dimethylbenzyl)pivalamide] | 89.8% | 99.7% | > 100 nM
2 | O=C(NCc1ccc(Cl)c(-c2nn(-c3ccc(C(F)(F)F)cc3)c(=O)[nH]2)c1)[C@@H]1CCCO1 [Example-109, (S)—N-(4-Chloro-3-(1-(4-(trifluoromethyl)phenyl)-4,5-dihydro-5-oxo-1H-1,2,4-triazol-3-yl)benzyl)-tetrahydro furan-2-carboxamide] | 97.1% | 97.2% | 50 to 100 nM
3 | Cn1ccnc1C(=O)NCc1ccc(Cl)c(-c2nn(-c3ccc(C(F)(F)F)cc3)c(=O)[nH]2)c1 [Example-110, N-(4-Chloro-3-(1-(4-(trifluoromethyl)phenyl)-4,5-dihydro-5-oxo-1H-1,2,4-triazol-3-yl)benzyl)-1-methyl-1H-imidazole-2-carboxamide] | 47.2% | 95.1% | –
4 | CC(C)(C)C#Cc1ccc(-c2nn(-c3c(Cl)ccc(CNC(=O)C(C)(C)C)c3F)c(=O)[nH]2)cc1 [Example-111, N-(4-Chloro-2-fluoro-3-(4,5-dihydro-3-(4-(3,3-dimethylbut-1-ynyl)phenyl)-5-oxo-1,2,4-triazol-1-yl)benzyl)pivalamide] | 87.2% | 96.2% | < 50 nM
5 | CC(C)(C)C(=O)NCc1ccc(Cl)c(-n2nc(-c3ccc(C#CC4CC4)cc3)[nH]c2=O)c1F [Example-112, N-(4-Chloro-3-(3-(4-(2-cyclopropylethynyl)phenyl)-4,5-dihydro-5-oxo-1,2,4-triazol-1-yl)-2-fluorobenzyl)pivalamide] | 99.5% | 99.8% | < 50 nM
6 | O=C(NCc1cc(-c2nn(-c3ccc(C(F)(F)F)cc3)c(=O)[nH]2)c(Cl)cc1F)C(F)(F)F [Example-113, N-(4-chloro-2-fluoro-5-(1-(4-(trifluoromethyl)phenyl)-4,5-dihydro-5-oxo-1H-1,2,4-triazol-3-yl)benzyl)-2,2,2-trifluoroacetamide] | 99.3% | 99.1% | < 50 nM
7 | CC(C)(C)C(=O)NCc1cc(-c2nn(-c3ccc(C(F)(F)F)cc3)c(=O)[nH]2)c(Cl)cc1F [Example-114, N-(4-Chloro-2-fluoro-5-(1-(4-(trifluoromethyl)phenyl)-4,5-dihydro-S-oxo-1H-1,2,4-triazol-3-yl)benzyl)pivalamide] | 99.1% | 98.4% | < 50 nM
8 | CC(C)(CO)C(=O)NCc1ccc(Cl)c(-c2nn(-c3ccc(C(F)(F)F)cc3)c(=O)[nH]2)c1 [Example-115, N-(4-Chloro-3-(1-(4-(trifluoromethyl)phenyl)-4,5-dihydro-5-oxo-1H-1,2,4-triazol-3-yl)benzyl)-3-hydroxy-2,2-dimethylpropanamide] | 96.5% | 98.2% | < 50 nM
9 | O=C(NCc1ccc(Cl)c(-c2nn(-c3ccc(Cl)c(F)c3)c(=O)[nH]2)c1)C(F)(F)F [Example-116, N-(4-chloro-3-(1-(4-chloro-3-fluorophenyl)-4,5-dihydro-5-oxo-1H-1,2,4-triazol-3-yl)benzyl)-2,2,2-trifluoroacetamide] | 98% | 95.5% | < 50 nM
10 | CC1(C)CCC(n2nc(-c3cc(CNC(=O)C(F)(F)F)ccc3Cl)[nH]c2=O)CC1 [Example-117, N-(4-chloro-3-(4,5-dihydro-1-(4,4-dimethylcyclohexyl)-5-oxo-1H-1,2,4-triazol-3-yl)benzyl)-2,2,2-trifluoroacetamide] | 67.9% | 95% | –
11 | CC1(C)CCC(n2nc(-c3cc(CNC(=O)C(C)(C)C)ccc3Cl)[nH]c2=O)CC1 [Example-118, N-(4-Chloro-3-(4,5-dihydro-1-(4,4-dimethylcyclohexyl)-5-oxo-1H-1,2,4-triazol-3-yl)benzyl)pivalamide] | 76.2% | 87.8% | > 100 nM
12 | O=C(NCc1cc(-c2nn(-c3ccc(C(F)(F)F)cc3)c(=O)[nH]2)c(Cl)cc1F)[C@H]1CCCO1 [Example-119, (R)—N-(4-chloro-2-fluoro-5-(5-oxo-1-(4-(trifluoromethyl)phenyl)-4,5-dihydro-1H-1,2,4-triazol-3-yl)benzyl)tetrahydrofuran-2-carboxamide] | 88.7% | 94.3% | < 50 nM
13 | CC(C)(C)n1nc(-c2cc(CNC(=O)C(F)(F)F)ccc2Cl)[nH]c1=O [Example-120, N-(3-(1-tert-butyl-4,5-dihydro-5-oxo-1H-1,2,4-triazol-3-yl)-4-chlorobenzyl)-2,2,2-trifluoroacetamide] | 11.4% | 46% | –
14 | CC(C)(C)C(=O)NCc1ccc(Cl)c(-c2nn(C(C)(C)C)c(=O)[nH]2)c1 [Example-121, N-(3-(1-tert-Butyl-4,5-dihydro-5-oxo-1H-1,2,4-triazol-3-yl)-4-chlorobenzyl)pivalamide] | 16.3% | 72.5% | –
15 | COCC(C)(C)C(=O)NCc1ccc(Cl)c(-c2nn(-c3ccc(C(F)(F)F)cc3)c(=O)[nH]2)c1 [Example-122, N-(4-Chloro-3-(1-(4-(trifluoromethyl)phenyl)-4,5-dihydro-5-oxo-1H-1,2,4-triazol-3-yl)benzyl)-3-methoxy-2,2-dimethylpropanamide] | 92.2% | 93.5% | < 50 nM
16 | CC(C)(C)C(=O)NCc1ccc(Cl)c(-c2nn(-c3ccc(Cl)c(F)c3)c(=O)[nH]2)c1 [Example-123, N-(4-Chloro-3-(1-(4-chloro-3-fluorophenyl)-4,5-dihydro-5-oxo-1H-1,2,4-triazol-3-yl)benzyl)pivalamide] | 93.8% | 100% | < 50 nM
17 | CC1(C)CCC(n2nc(-c3cc(CNC(=O)C(F)(F)F)c(F)cc3Cl)[nH]c2=O)CC1 [Example-124, N-(4-chloro-2-fluoro-5-(4,5-dihydro-1-(4,4-dimethylcyclohexyl)-5-oxo-1H-1,2,4-triazol-3-yl)benzyl)-2,2,2-trifluoroacetamide] | 28% | 89% | –
18 | CC1(C)CCC(n2nc(-c3cc(CNC(=O)C(C)(C)C)c(F)cc3Cl)[nH]c2=O)CC1 [Example-125, N-(4-Chloro-2-fluoro-5-(4,5-dihydro-1-(4,4-dimethylcyclohexyl)-5-oxo-1H-1,2,4-triazol-3-yl)benzyl)pivalamide] | 79.9% | 95% | –
19 | CC(C)(C)C(=O)NCc1cc(-c2nn(-c3ccc(Cl)cc3)c(=O)[nH]2)c(Cl)cc1F [Example-126, N-(4-Chloro-5-(1-(4-chlorophenyl)-4,5-dihydro-5-oxo-1H-1,2,4-triazol-3-yl)-2-fluorobenzyl)pivalamide] | 100% | 99.3% | < 50 nM
20 | COc1cc(Cl)c(-c2nn(-c3ccc(C(F)(F)F)cc3)c(=O)[nH]2)cc1CNC(=O)C(C)(C)C [Example-127, N-(4-Chloro-5-(1-(4-(trifluoromethyl)phenyl)-4,5-dihydro-5-oxo-1H-1,2,4-triazol-3-yl)-2-methoxybenzyl)pivalamide] | 32.4% | 58.5% | –
